Assay results reported in patent US20130338115A1, “USE OF MITOCHONDRIALLY-ADDRESSED COMPOUNDS FOR PREVENTING AND TREATING CARDIOVASCULAR DISEASES” (Mitotech SA, priority 2007, published 2013).

Columns and labels:
[1] = system: Wistar male rats; assay: Regional myocardial ischemia and reperfusion in anesthetized rats; format: in vivo, rat
Experimental: To study a possibility of reduction of the irreversible damage of cardiomyocytes by SkQ1 in vivo a model of regional myocardial ischemia and reperfusion in anesthetized rats was used. Experiments were performed on Wistar male rats weighing 300-450 grams, fed a standard diet. In the control animals during three weeks received NaBr dissolved in 0.1 M phosphate buffer (pH 6.0), at a dose of 250 nmol/kg body weight/day. Animals of the experimental group during three weeks together with food received SkQ1 dissolved in 0.1 M phosphate buffer (pH 6.0), at a dose of 250 nmol/kg body weight/day.
In urethane-anesthetized animals ([…] body weight intraperitoneally administered), artificial ventilation of the lungs with room air with added oxygen at a rate of 60-80 beats per minute was carried out. Indicators of the acid-base balance of arterial blood (pH, pO2 and pCO2) during the entire experiment were controlled with the use of acid-base gas analyzer ABL-30 (Radiometer) and maintained at a physiological level.
Catheterization of the carotid artery was performed for recording arterial pressure (Mingograf 804, Siemens-Elema). The chest was opened by longitudinal dissection of the sternum and the heart was freed from the pericardium. To induce regional myocardial ischemia, the left ventricle was pierced with an atraumatic needle 5-0 under the left appendage in the direction perpendicular to long axis of the heart. Tightening the ligature at the anterior descending coronary artery (ADA) located deep in the pierced myocardium ceased blood supply to a portion of the myocardium, weakening of the ligature restored coronary flow.
The dissection is followed by a 30-min period of stabilization of hemodynamic parameters (the initial state). Then anterior descending coronary artery was occluded for 40 min followed by 60 min of reperfusion. At the end of the experiment, to identify the risk zone (RZ) and the intact zone, anterior descending coronary artery was occluded and a 2% Evans solution (2 ml) was injected as a bolus into the jugular vein. Then the heart was cut out and the left ventricle (LV) was separated and frozen at −20° C.
To measure infarct size, the method for histochemical localization of the risk zone (RZ) and myocardial infarction (MI) by tissue staining with 2,3,5-triphenyltetrazolium chloride (TFT) was used (Kitakaze M., Takashima S., Funaya H., Minamino T., Node K., Shinozaki Y., Mori H., Hori M., 1997. Temporary acidosis during reperfusion limits myocardial infarct size. Am. J. Physiol.; 272: H2071-H207). […] The obtained samples were scanned, MI and RZ sizes were determined by the method of computer-assisted planimetry using the Imagecal program. […]

[2] = system: isolated hearts of Wistar rats; assay: H2O2-induced development of arrhythmias in isolated rat hearts after 3 weeks oral SkQ1; format: in vivo; conditions: for normal rhythm maintained, % of the experiments: hydrogen peroxide 100 μm into coronary bed
Experimental: Wistar rats received preparation SkQ1 daily for 3 weeks at doses of 2.0, 0.2 and 0.02 nmol/kg body weight by its addition to the curd. In the control group of animals, the feed was supplemented with sodium bromate in a similar dose. Experiments on isolated hearts were performed 1-2 days after the end of administration of the preparations by a standard technique under conditions of retrograde perfusion of the heart with a controlled rate of perfusion and a measurement of spontaneous heart rate. The effect of SkQ1 on the incidence of arrhythmias induced by injection of hydrogen peroxide (100 μm) into the coronary bed of hearts was studied. This model reproduces some features of a situation of oxidative stress that develops during reperfusion of ischemic heart.

[3] = system: rat heart; conditions: pre-perfusion of rat heart; Kutala et al. 2006; cited from earlier work
[4] = SkQ1 250 nmol/kg body weight/day with food for three weeks, initial state

SMILES	RZ/LV (risk zone/weight of the left ventricle), difference between the groups ([1]; 250 nmol/kg body weight/day, three weeks, 40 min occlusion, 60 min reperfusion)	MI/RZ ratio (myocardial infarction/risk zone), times less as compared to the control ([1]; 250 nmol/kg body weight/day, three weeks, 40 min occlusion, 60 min reperfusion, P<0.005)	effect on blood pressure [1, 4]	effect on heart rate [1, 4]	normal rhythm maintained, % of the experiments ([2]; SkQ1 0.02 nmol/kg daily for 3 weeks)	normal rhythm maintained, % of the experiments ([2]; SkQ1 0.2 nmol/kg daily for 3 weeks)	number of hearts with documented normal rhythm ([2]; SkQ1 0.2 nmol/kg, 23 experiments)	normal rhythm maintained, % of the experiments ([2]; SkQ1 2.0 nmol/kg daily for 3 weeks)	reduction of infarct size caused by subsequent ischemia/reperfusion [3]
CC1=C(C)C(=O)C(CCCCCCCCCC[P+](c2ccccc2)(c2ccccc2)c2ccccc2)=CC1=O [SkQ1]	no differences	1.7 times	No effect	No effect	55%	70%	16 hearts	58%	–
CC1(C)CC(O)CC(C)(C)N1[O] [Tempol]	–	–	–	–	–	–	–	–	1.5 times
